# According to EP2229935A1, “Peptide derivatives or pharmaceutically acceptable salts thereof, method for producing the same, use of said derivatives and pharmaceutical composition” (Nebolsin, Vladimir Evgenievich, priority 1997, dated 1999):
# Read-outs that look alike come from different tables or passages of the source. Marks after values point to notes of the source that are not given here.
# Tests used:
# hydroxyl radical = test: Hydroxyl radical formation in the Fenton reagent (chemiluminescence); format: biochemical
# [1] = system: Lewis pulmonary carcinoma (LLC); test: Lewis pulmonary carcinoma growth; format: in vivo; details: mice with LLC, day 12; for Growth inhibition percent: compound in drinking water; for Tumor volume (mm^3): compound in drinking water from 24 hours after transplantation
# Method: Experiments were carried out on male mice with initial body mass 18-20 g. Each group included 10 animals. […] Administration of compounds II, III, IX, X, XII, XIV, XV, XVI, XVII, XIX, XXII, XLVII in drinking water was commenced 24 hours following transplantation and continued till the end of experiment. Effect of the compounds on Lewis rat pulmonary carcinoma (LLC) was estimated by day 12 of experiment by change in tumor volume expressed in mm^3.
# superoxide anion-radical = test: Superoxide anion-radical formation in the xantine-xantine oxidase system (chemiluminescence); format: biochemical
# Method: Effect of the compounds of general formula (I) on change in chemiluminescence (CL) determined by hydroxyl radical ( OH) and superoxide anion-radical (O2-), in the model chemical and enzymatic systems.
# 5 to 10 ml of the test compounds dissolved in water were at needed concentration introduced into a cuvette. A total sample volume was 0.5 ml. • B. Superoxide anion-radical in the mixture of xantine and xantine oxidase [Afanas'ev I., Suslova T., Cheremisina Z. et al. Study of antioxidant properties of metal aspartates.
# Incubation medium comprised 5 mM KH2PO4; 0.2 IU/ml xantine oxidase. Xantine at concentration 1 mM was introduced into sample through a dispencer. Luceginine (0.2 mM) was used in this system as luminiscence sensitizer.
# CL signal indication was performed by its integration every 10 seconds for 5 minutes. CL flash recording duration after mixing ingredients, depended on a particular process kinetics. For each system, CL light sum (mV) was determined in the control samples without preparations (I-) and in samples comprising respective concentrations of preparations (I+). To estimate CL inhibition (activation) degree, the I+/I- ratio (in relative units) was found in the studied systems.
# AOF formation and effect of the test compounds on this process were recorded on the Luminometer-1251 instrument (LKB, Sweden).
# Because of such "distension" of the kinetic curve, chemiluminescence light sum was recorded during the first 3-5 minutes which reflected a total amount of light quantums produced in the system till achieving the maximum CL intensity values.
# [2] = system: hepatic P-450 cytochrome system; test: Hexenal sleep duration in mice; format: in vivo; details: CBF1 mice; oral 3 days, 500 µg/kg; control 25.91 ± 1.57
# Method: Change in Hexenal sleep (HS) duration is the in vivo measurable index of hepatic P-450 cytochrome system condition.
# Studies were carried out on male mice of the lines BALB/c*h75, C57B1/6, CBA, DBA/2, first generation CBF1 and BDF1 hybrides, with initial mass 18-20 g, each group including 10 mice; and on mongrel male guinea pigs with initial mass 250-300 g, each group including 24 animals. All the test compounds (from II to LII) were administered orally in drinking water and for three days at doses 50 and 500 µg/kg. Hexenal hydrochloride at a dose […] of animal mass was administered 24 hours after the last drug administration, except for line BALB/c*h75 mice, which were administered Hexenal at a dose 60 µg/kg at the same terms, and guinea pigs for which Hexenal dose was 30 µg/kg. HS duration was determined in minutes.
# [3] = system: Strain Aichi of type A human influenza virus; format: in vivo; details: for Survival rate in percent: series with Control - 2 (34.5); for Protection degree in percent: series with Control - 2
# mongrel male rats = test: Hypolipidemic activity: experimental hyperlipidemia (atherogenic load); details: atherogenic diet; for Kcs: cholesterol index;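 for all read-outs here: serum drawn 18 h after the final dose from rats deprived of food over that interval, groups of 10 animals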
# [4] = 0.01 mM, control of the series as in the table
# [5] = 0.1 mM, control of the series as in the table
# [6] = 1 mM, control of the series 7839 ± 171, 1120 ± 163, 4974 ± 283 or 1332 ± 172
# [7] = 1 mM, control of the series 5616 ± 173, 5391 ± 195, 7290 ± 128 or 6776 ± 150
# [8] = series with Control - 2 (9.1), […]
# [9] = blood, oral last four days, 50 µg/kg
# [10] = blood, oral last four days, 500 µg/kg
# [11] = blood serum, 10 µg/kg for 10 days
compound,measurement,setting,value
O=C(O)CCCC(=O)NCCc1ccccc1 [XXI],relative effect: I+/I-,hydroxyl radical; 0.01 mM,0.81
same,Chemiluminiscence intensity (mV) + σn-1,hydroxyl radical; [4],4036 ± 186 mV
same,relative effect: I+/I-,hydroxyl radical; 0.1 mM,0.66
same,Chemiluminiscence intensity (mV) + σn-1,hydroxyl radical; [5],3265 ± 184 mV
same,relative effect: I+/I-,hydroxyl radical; 1 mM,0.05
same,Chemiluminiscence intensity (mV) + σn-1,hydroxyl radical; [6],228 ± 72 mV
same,Growth inhibition percent,[1],25%
same,Tumor volume (mm^3),[1],1023 ± 207 mm^3
same,relative effect: 1+/I-,superoxide anion-radical; 0.1 mM,0.89
same,Chemiluminiscence intensity (mV) + σn-1,superoxide anion-radical; [5],6460 ± 166 mV
same,relative effect: 1+/I-,superoxide anion-radical; 1 mM,0.58
same,Chemiluminiscence intensity (mV) + σn-1,superoxide anion-radical; [7],4232 ± 146 mV
"CCCCCCCNC(=O)Cc1c[nH]cn1 [XXXIII, N-(IMIDAZOLYL-4-ACETHYL)-HEPTHYLAMINE]",Hexenal sleep duration (minutes),[2],19.82 ± 2.12* minutes
same,Survival rate in percent,[3]; 50 µg/kg orally,63.3%
same,Survival rate in percent,[3]; 500 µg/kg orally,76.6*^2%
same,Protection degree in percent,[3]; 50 µg/kg orally,28.8%
same,Protection degree in percent,[3]; 500 µg/kg orally,76.6%
"COC(=O)[C@@H](N)CCC(=O)N[C@@H](Cc1c[nH]cn1)C(=O)O.Cl.Cl [compound XI, γ-L-GLUTAMYL HISTIDINE α-METHYL ETHER DICHLOROHYDRATE]",Hexenal sleep duration (minutes),[2],17.71 ± 0.66*** minutes
same,Chemiluminiscence intensity (mV) + σn-1,"hydroxyl radical; 1 µM, control of the series as in the table",1116 ± 90 mV
same,Chemiluminiscence intensity (mV) + σn-1,hydroxyl radical; [4],1124 ± 113 mV
same,relative effect: I+/I-,hydroxyl radical; 1 mM,0.50
same,Chemiluminiscence intensity (mV) + σn-1,hydroxyl radical; [6],557 ± 52 mV
same,relative effect: 1+/I-,superoxide anion-radical; 0.1 mM,0.82
same,Chemiluminiscence intensity (mV) + σn-1,superoxide anion-radical; [5],4621 ± 224 mV
same,relative effect: 1+/I-,superoxide anion-radical; 1 mM,0.40
same,Chemiluminiscence intensity (mV) + σn-1,superoxide anion-radical; [7],2263 ± 278 mV
"NCCCC(=O)NCCc1c[nH]cn1 [compound XLVII, γ-Aminobutyrylhistamine]",Growth inhibition percent,[1],45%
same,Tumor volume (mm^3),[1],826 ± 119* mm^3
same,MLT,[3]; [8],10.0 days
same,"MLT, days",[3]; [8],13.0*^2 days
same,Survival rate in percent,[3]; 50 µg/kg orally,83.3*^2%
same,Survival rate in percent,[3]; 500 µg/kg orally,79.3*^2%
same,Protection degree in percent,[3]; 50 µg/kg orally,48.8%
same,Protection degree in percent,[3]; 500 µg/kg orally,44.8%
same,HDL-CS,mongrel male rats; [9],"44,1±1,9**^A"
same,LDL-CS+ VLDL-CS,mongrel male rats; [9],"42,4±1,7***^A"
same,Total CS,mongrel male rats; [9],"86,5±3,9*^A"
same,HDL-CS,mongrel male rats; [10],"40,8±4,8"
same,LDL-CS+ VLDL-CS,mongrel male rats; [10],"50,8±3,6**^A"
same,Total CS,mongrel male rats; [10],"90,0±2,4"
same,Triglycerides,mongrel male rats; [10],"116,7±10,8*^A"
same,Kcs,"mongrel male rats; oral last four days, 50 µg/kg","0,96±0,04***^A"
same,Kcs,"mongrel male rats; oral last four days, 500 µg/kg","1,27±0,09"
"O=C(O)CCCC(=O)NCCc1c[nH]c2ccc(O)cc12 [compound XV, N-GLUTARYLSEROTONIN]",Growth inhibition percent,[1],63%
same,Tumor volume (mm^3),[1],889 ± 67** mm^3
"COc1ccc2[nH]cc(CCNC(=O)CCCC(=O)O)c2c1 [compound XVI, N-GLUTARYL-5-O-METHYLSEROTONIN]",Growth inhibition percent,[1],56%
same,Tumor volume (mm^3),[1],1076 ± 69** mm^3
"O=C(O)CCCC(=O)NCCc1ccccn1 [compound XX, N-GLUTARYL-2-(2-AMINOETHYL)PYRIDINE]",relative effect: I+/I-,hydroxyl radical; 0.01 mM,0.85
same,Chemiluminiscence intensity (mV) + σn-1,hydroxyl radical; [4],4205 ± 234 mV
same,relative effect: I+/I-,hydroxyl radical; 0.1 mM,0.81
same,Chemiluminiscence intensity (mV) + σn-1,hydroxyl radical; [5],4018 ± 201 mV
same,relative effect: I+/I-,hydroxyl radical; 1 mM,0.11
same,Chemiluminiscence intensity (mV) + σn-1,hydroxyl radical; [6],536 ± 124 mV
same,Growth inhibition percent,[1],16%
same,Tumor volume (mm^3),[1],1148 ± 112 mm^3
"O=C(O)c1cccnc1 [nicotinic acid, reference compound]",HDL-CS,mongrel male rats; [11],42.1 ± 4.2***^1.2
same,LDL-CS+ VLDL-CS,mongrel male rats; [11],25.7 ± 2.8***^2
same,Total-CS,mongrel male rats; [11],65.7 ± 3.5
same,Triglycerids,mongrel male rats; [11],89.4 ± 6.2***^2
same,Kcs,mongrel male rats; 10 µg/kg for 10 days,0.56***^2
